Where a name gives a salt, the structure may show the parent alone.
System: ICR mice
Assay: Glucose tolerance in fasted ICR mice: serum glucose by glucose-oxidase method after intraperitoneal glucose load
Type: in vivo
Details: dose 100 mg/kg; for 0.5 h blood sugar: serum glucose 0.5 h after modeling (2 g/kg glucose i.p. 2 h after administration; 1.5 h for diamicron); for 1 h blood sugar: serum glucose 1 h after modeling (2 g/kg glucose i.p. 2 h after administration; 1.5 h for diamicron); for 2 h blood sugar: serum glucose 2 h after modeling (2 g/kg glucose i.p. 2 h after administration; 1.5 h for diamicron); for 3 h blood sugar: serum glucose 3 h after modeling (2 g/kg glucose i.p. 2 h after administration; 1.5 h for diamicron); for 4 h blood sugar: serum glucose 4 h after modeling (2 g/kg glucose i.p. 2 h after administration; 1.5 h for diamicron)
Procedure: 1% sodium carboxymethyl cellulose is used to formulate the sample to a suspension with the concentration of 5 mg/mL, the administration amount is 0.4 mL/20 g body weight, which is corresponding to 100 mg/kg dosage.
The health ICR mice with 20-24 g of body weight fulfill the primary standard, and the male and female of them are in equal. The animals are fasted for 16 hours, and 2 g/kg of glucose-saline solution is injected intraperitoneally at 2 h after administration (glucose is injected at 1.5 h after administration of diamicron). The blood is regularly collected from the post-glomus venous plexus in mice with capillary at 0.5 h, 1 h, 2 h, 3 h, and 4 h after modeling, centrifuged to separate the blood serum, and the content of serum glucose is measured at each of the time-point by glucose-oxidase method.

Compound	0.5 h blood sugar [mg/dL]	1 h blood sugar [mg/dL]	2 h blood sugar [mg/dL]	3 h blood sugar [mg/dL]	4 h blood sugar [mg/dL]
O=C(CNCc1ccccc1Cl)Nc1nc(Br)cs1 [Compound I-2, 4-bromo-2-{2-[(2-chlorobenzyl)amino]acetyl}amino thiazole]	199.2 ± 37.6	153.3 ± 62.7	93.3 ± 48.7	58.2 ± 29.0	60.0 ± 18.2
Cl.O=C(CNCc1ccccc1Cl)Nc1nc(Br)cs1 [Compound I-13, 4-bromo-2-{2-[(2-chlorobenzyl)amino]acetyl}amino thiazole hydrochloride]	195.6 ± 78.1	166.5 ± 44.2	99.3 ± 20.9	68.1 ± 21.5	59.2 ± 18.3
Cc1csc(NC(=O)CNCc2cccs2)n1 [Compound I-6, 4-methyl-2-{2-[(thienyl-2-methyl)amino]acetyl}amino thiazole]	240.1 ± 41.1	186.8 ± 45.9	113.6 ± 30.9	76.6 ± 48.4	88.0 ± 20.1
Cc1ccc(S(=O)(=O)NC(=O)NN2CC3CCCC3C2)cc1 (stereo not drawn) [diamicron, reference compound]	211.0 ± 91.3	140.3 ± 74.4	103.4 ± 31.7	77.2 ± 25.8	62.3 ± 22.3
COC(=O)c1csc(NC(=O)CNCc2scc(C)c2Br)n1 [Compound I-8, 2-{2-[(3-bromo-4-methylthienyl-2-methyl)amino]acetyl}amino thiazole-4-methyl formate]	162.5 ± 20.6	102.0 ± 30.5	98.7 ± 20.5	62.5 ± 15.3	50.6 ± 18.9
Cc1csc(NC(=O)CNCc2cccs2)n1.Cl [Compound I-14, 4-methyl-2-{2-[(thienyl-2-methyl)amino]acetyl}amino thiazole hydrochloride]	233.2 ± 18.1	176.2 ± 25.2	95.4 ± 46.9	65.3 ± 20.1	70.1 ± 15.3
O=C(CNCc1sccc1Br)Nc1nc(Br)cs1 [Compound I-7, 4-bromo-2-{2-[(3-bromothienyl-2-methyl)amino]acetyl}amino thiazole]	186.0 ± 67.8	130.2 ± 37.7	100.9 ± 29.6	83.3 ± 91.8	72.1 ± 29.7
Cl.O=C(CNCc1occc1[N+](=O)[O-])Nc1nc(Br)cs1 [Compound I-15, 4-bromo-2-{2-[(3-nitrylfuranyl-2-methyl)amino]acetyl}amino thiazole hydrochloride]	193.6 ± 76.4	161.5 ± 42.6	91.3 ± 20.0	64.1 ± 20.2	55.1 ± 14.2
O=C(CNCc1ccccc1)Nc1nccs1 [Compound I-1, 2-{2-[(benzyl)amino]acetyl}amino thiazole]	266.4 ± 56.9	182.3 ± 57.6	88.2 ± 17.6	60.0 ± 15.6	52.3 ± 28.1
